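Cultured in 96-well plates, cells were exposed to test compound for 48 hours across five concentrations. GI50: concentration for 50% inhibition of growth.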 Active and inactive are the calls of the source. Rule as the data show it: active = GI50 up to about 1.1 µM and inactive = higher.
How the values were obtained:
Assay in all cases: NCI anticancer screen, dose series, 48 h
786-0 = system: 786-0
A549 = system: A549
COLO 205 = system: COLO 205
HOP-62 = system: HOP-62
HT-29 = system: HT-29
Hs-578T = system: Hs-578T
IGROV-1 = system: IGROV-1
M14 = system: M14
MDA-N = system: MDA-N
NCI-H23 = system: NCI-H23
OVCAR-3 = system: OVCAR-3
PC-3 = system: PC-3
RPMI-8226 = system: RPMI-8226
RXF 393 = system: RXF 393
SF-539 = system: SF-539
SW-620 = system: SW-620
T47D = system: T47D
UACC-257 = system: UACC-257
UACC-62 = system: UACC-62
UO-31 = system: UO-31

Measured: GI50

O=C1C(Cl)=CC2(C=C1Cl)CCNC1=C2C(=O)c2nc[nH]c2C1=O
inactive: 786-0 41.3 µM | A549 > 100 µM | COLO 205 22.9 µM | HOP-62 > 100 µM | HT-29 29.6 µM | Hs-578T > 100 µM | IGROV-1 47.1 µM | M14 39 µM | MDA-N 18.5 µM | NCI-H23 27.2 µM | OVCAR-3 32.3 µM | PC-3 35.3 µM | RPMI-8226 30.5 µM | RXF 393 23.2 µM | SF-539 33.5 µM | SW-620 26.9 µM | T47D 99.8 µM | UACC-257 18.6 µM | UACC-62 18.3 µM | UO-31 > 100 µM

COC(=O)C(C)(/N=C/c1ccccc1)c1ccccc1 (stereo not given)
inactive: 786-0 > 100 µM | A549 > 100 µM | COLO 205 > 100 µM | HOP-62 > 100 µM | HT-29 > 100 µM | Hs-578T > 100 µM | IGROV-1 > 100 µM | M14 > 100 µM | MDA-N > 100 µM | NCI-H23 > 100 µM | OVCAR-3 > 100 µM | PC-3 > 100 µM | RPMI-8226 > 100 µM | RXF 393 > 100 µM | SF-539 > 100 µM | SW-620 > 100 µM | T47D > 100 µM | UACC-257 > 100 µM | UACC-62 > 100 µM | UO-31 > 100 µM

CSc1nnnc2ccccc12
inactive: 786-0 > 100 µM | A549 > 100 µM | COLO 205 > 100 µM | HOP-62 > 100 µM | HT-29 > 100 µM | Hs-578T > 100 µM | IGROV-1 > 100 µM | M14 > 100 µM | MDA-N > 100 µM | NCI-H23 > 100 µM | OVCAR-3 > 100 µM | PC-3 > 100 µM | RPMI-8226 > 100 µM | RXF 393 > 100 µM | SF-539 > 100 µM | SW-620 > 100 µM | T47D 85.1 µM | UACC-257 > 100 µM | UACC-62 > 100 µM | UO-31 > 100 µM

— ChEMBL document CHEMBL1201862, “PubChem BioAssay data set” (2004)
